# Measurements reported in patent US10828315B2 (Madrigal Pharmaceuticals, Inc., priority 2013, dated 2020).
# Several values for one entry are separate records, joined by “and”; a condition that tells them apart may be missing. Identical values can stand only once. Like-named read-outs stand apart in the source and are kept apart here.
# How the values were obtained:
# HER2 [1] = assay: HER2 degradation in BT-474 cells (Example 3, Methods 1 and 2); assay type: cell-based, human
# Excerpt: This example illustrates how a HER2 degradation assay may be used as a test to determine and select Hsp90-targeting moieties suitable for use in SDC-TRAPs of the invention, and further illustrates the ability of SDC-TRAPs to target cells preferentially expressing Hsp90. Such a test may further be used to determine the Hsp90 binding ability of SDC-TRAPs of the invention, as well as through competitive binding assays and cell-based Hsp90 client protein degradation assays known in the art.
# After treatment, each cytoplasmic sample is prepared from 1×10^6 cells by incubation of cell lysis buffer (#9803, Cell Signaling Technology) on ice for 10 minutes. The resulting supernatant used as the cytosol fractions is dissolved with sample buffer for SDS-PAGE and run on a SDS-PAGE gel, blotted onto a nitrocellulose membrane by using semi-dry transfer. Non-specific binding to nitrocellulose is blocked with 5% skim milk in TBS with 0.5% Tween at room temperature for 1 hour, then probed with anti-HER2/ErB2 mAb (rabbit IgG, #2242, Cell Signaling) and anti-Tubulin (T9026, Sigma) as housekeeping control protein. HRP-conjugated goat anti-rabbit IgG (H+L) and HRP-conjugated horse anti-mouse IgG (H+L) are used as secondary Ab (#7074#7076, Cell Signaling) and LumiGLO reagent, 20× Peroxide (#7003, Cell Signaling) is used for visualization. The Hsp90 client protein HER2 is degraded when cells are treated with Hsp90-targeting moieties or SDC-TRAPs of the invention.
# BT-474 cells are plated in the interior 60 wells of a 96 well black clear bottom plate (20,000 cells/well) in DMEM medium, with DMEM media in the surrounding 36 wells, and incubated at 37° C. with 5% CO2 overnight. On the second day, concentration response curve source plates are produced (10 point, 3-fold dilution of compounds in DMSO) followed by a 1:30 dilution in an intermediate dilution plate containing DMEM. Compound is transferred from the intermediate plate to the cell plate at a dilution of 1:10. The cells are then incubated at 37° C. with 5% CO2 for 24 hours.
# Cells are then fixed in 4% phosphate-buffered paraformaldehyde for 30 minutes at room temperature and then permeabilized by washing five times with 0.1% Triton X-100 in PBS for 5 minutes at room temperature on a shaker. […] Cells are washed five times with 0.1% Tween-20 in PBS for 5 minutes at room temperature on a shaker and incubated with fluorescently-labeled secondary antibody (LI-COR, #926-32211) diluted 1:1000 in blocking buffer, and DRAQ5 nuclear stain (Biostatus Limited, # DRAQ5) diluted 1:10,000, at room temperature on a shaker for 1 hour. Cells are washed 5 times with 0.1% Tween-20 in PBS for 5 minutes at room temperature on a shaker and imaged on a LI-COR Odyssey imaging station. The raw data is normalized to DRAQ5 and the HER2 EC50 is calculated using XLfit™.
# [2] = test system: human urinary bladder cancer cell line RT-112; assay: Cytotoxicity assay (CellTiter-Glo, 72 h), RT-112; assay type: cell-based; conditions: read-out: Cytotoxicity (IC50, nM) RT-112
# Method: (§1) Cytotoxicity of SDC-TRAP molecules was determined in three cancer cell lines. […] 80 μL of CellTiter-Glo was added to each well, followed by room temperature incubation in the dark for 15 minutes. Cell was determined by luminescence. IC50 was calculated using XLfit™ software.
# [3] = test system: human breast cancer cell line BT-474; assay: Cytotoxicity assay (CellTiter-Glo, 72 h), BT-474; assay type: cell-based; conditions: read-out: Cytotoxicity (IC50, nM) BT-474
# Method: as §1
# [4] = test system: human urinary bladder cancer cell line SW780; assay: Cytotoxicity assay (CellTiter-Glo, 72 h), SW780; assay type: cell-based; conditions: read-out: Cytotoxicity (IC50, nM) SW-780
# Method: as §1
# [5] = Artificial membrane permeability assay (PAMPA); conditions: incubation 5 h, first table
# Method: Pre-coated PAMPA plates were warmed to room temperature for at least 30 minutes prior to adding assay components.
# Stock solutions were prepared with the SDC-TRAP molecules to be tested. In order to make a working solution, either 50 μL of 100 μM Stock in DMSO+950 μL of PBS or 50 μL of 200 μM stock was added to 96 deep well plate, resulting in a 5 μM final concentration or a 10 μM final concentration, respectively. 3000 μL of the working solution containing each compound to be tested was added to the appropriate well of a donor PAMPA plate. 200 μL of PBS was added into the corresponding wells of an acceptor PAMPA plates.
# The acceptor plate was lowered onto the donor plate and allowed to incubate for five hours. After five hours, a 50 μL aliquot was removed from each well of each plate and added into a new 96 deep-well plate.
# 100 μL of methanol containing an internal standard was added to each aliquot and analyzed by LC/MS.
# In order to calculate the permeability for each SDC-TRAP molecule and the control molecules, the following formula was used:
# HER2 [6] = assay: HER2 degradation assay with BT-474 cell line (Example 12, FACS); assay type: cell-based, human
# [7] = mouse, plasma, 1 h
# [8] = Mouse plasma stability protocol, up to 1 h (Examples 16-18)
# [9] = % Remaining of parent after 1 h incubation in mouse plasma at 37° C. (10 μM)
# [10] = Tissue Distribution Data for SDC-TRAP-0098, Time (h) 0.083
# [11] = Tissue Distribution Data for SDC-TRAP-0098, Time (h) 1
# [12] = Tissue Distribution Data for SDC-TRAP-0098, Time (h) 6
# [13] = Tissue Distribution Data for SDC-TRAP-0098, Time (h) 24
compound,measurement,setting,value
"C=CCNC1=C2C[C@@H](C)C[C@H](OC)[C@H](O)[C@@H](C)/C=C(\C)[C@H](OC(N)=O)[C@@H](OC)/C=C\C=C(/C)C(=O)NC(=CC1=O)C2=O [17-AAG, reference compound]",degradation of HER2 (western blot),"HER2 [1]; 0.5 μM, overnight",partial degradation of HER2
"Nc1cccc2c1CN(C1CCC(=O)NC1=O)C2=O (stereo not drawn) [Lenalidomide, lenalidomide, reference compound]",IC50,"[2]; RT-112, 72 hours",> 10000 nM
same,IC50,"[3]; BT-474, 72 hours",> 10000 nM
same,IC50,"[4]; SW780, 72 hours",> 10000 nM
same,Mass Retention,[5],26.0%
same,Tumor Conc.,"female, SCID, mouse, in vivo, 24 h",0.0574 nmol/g of tissue
same,Tumor Conc.,"female, SCID, mouse, in vivo, 48 h",0.0143 nmol/g of tissue
same,Plasma Conc.,"mouse, in vivo",BQL
same,Tumor Conc.,"mouse, in vivo",BQL
"CCc1c2c(nc3ccc(OC(=O)N4CCC(Cc5ccc(-n6c(O)nnc6-c6cc(C(C)C)c(O)cc6O)cc5)CC4)cc13)-c1cc3c(c(=O)n1C2)COC(=O)C3(O)CC (stereo not drawn) [SDC-TRAP-0031, 4,11-diethyl-4-hydroxy-3,14-dioxo-3,4,12,14-tetrahydro-1H-pyrano[3′,4′:6,7]indolizino[1,2-b]quinolin-9-yl 4-(4-(3-(2,4-dihydroxy-5-isopropylphenyl)-5-hydroxy-4H-1,2,4-triazol-4-yl)benzyl)piperidine-1-carboxylate]",IC50,HER2 [6],1.27 µM
same,IC50,HER2 [1],2.92 µM
"CC(C)c1cc(-c2nnc(O)n2-c2ccc(CN3CCN(C(=O)c4ccc(CCc5c[nH]c6nc(N)[nH]c(=O)c56)cc4)CC3)cc2)c(O)cc1O [SDC-TRAP-0068, 2-amino-5-(4-(4-(4-(3-(2,4-dihydroxy-5-isopropylphenyl)-5-hydroxy-4H-1,2,4-triazol-4-yl)benzyl)piperazine-1-carbonyl)phenethyl)-3H-pyrrolo[2,3-d]pyrimidin-4(7H)-one]",IC50,"[2]; RT-112, 72 hours",74 nM
same,% Remaining (1 h),[7]; 10 µM,96.5%
same,% Remaining (1 h),[7]; 10 μM,96.5%
same,IC50,"[3]; BT-474, 72 hours",70 nM
same,IC50,"[4]; SW780, 72 hours",202 nM
"COc1ccc(-c2cnoc2-c2cc(OC)c(OC)c(OC)c2)cc1OC(=O)N1CCN(Cc2ccc(-n3c(O)nnc3-c3cc(C(C)C)c(O)cc3O)cc2)CC1 [SDC-TRAP-0098, 2-Methoxy-5-(5-(3,4,5-trimethoxyphenyl)isoxazol-4-yl)phenyl-4-(4-(3-(2,4-dihydroxy-5-isopropylphenyl)-5-hydroxy-4H-1,2,4-triazol-4-yl)benzyl) piperazine-1-carboxylate]",IC50,"[2]; RT-112, 72 h",22 nM
same,IC50,"[3]; BT-474, 72 h",41 nM
same,IC50,HER2 [6],0.232 µM
same,% Remaining (1 h),[8]; [9],96.0%
same,% Remaining (1 h),"[8]; mouse plasma, 1 h",96.0%
same,IC50,"[4]; SW780, 72 h",257 nM
same,Tumor Conc.,[10],5.02 nmol/g of tissue
same,Tumor/Plasma Ratio,[10],0.01
same,Tumor Conc.,[11],4.62 nmol/g of tissue
same,Tumor/Plasma Ratio,[11],0.62
same,Tumor Conc.,[12],3.18 nmol/g of tissue
same,Tumor/Plasma Ratio,[12],8.22
same,Tumor Conc.,[13],0.920 nmol/g of tissue
same,Tumor/Plasma Ratio,[13],300
same,Tumor Conc.,"Tissue Distribution Data for SDC-TRAP-0098, Time (h) 48",0.182 nmol/g of tissue
"CC(C)c1cc(-c2nnc(O)n2-c2ccc(CN3CCN(C(=O)ONC(=O)CCCCCCC(=O)Nc4ccccc4)CC3)cc2)c(O)cc1O [SDC-TRAP-0117, N1-((4-(4-(3-(2,4-dihydroxy-5-isopropylphenyl)-5-hydroxy-4H-1,2,4-triazol-4-yl)benzyl)piperazine-1-carbonyl)oxy)-N8-phenyloctanediamide]",IC50,"[2]; RT-112, 72 hours",152 nM
same,% Remaining (1 h),[7]; 10 µM,3.97%
same,IC50,"[3]; BT-474, 72 hours",452 nM
same,IC50,"[4]; SW780, 72 hours",284 nM
"CCNC(=O)c1nnc(-c2cc(C(C)C)c(O)cc2O)n1-c1ccc(C(=O)N2CCN(c3cc(C)c(OC(=O)Nc4cccc5c4CN(C4CCC(=O)NC4=O)C5=O)c(C)c3)CC2)cc1 (stereo not drawn) [SDC-TRAP-0178, 4-(4-(4-(3-(2,4-dihydroxy-5-isopropylphenyl)-5-(ethylcarbamoyl)-4H-1,2,4-triazol-4-yl)benzoyl)piperazin-1-yl)-2,6-dimethylphenyl (2-(2,6-dioxopiperidin-3-yl)-1-oxoisoindolin-4-yl)carbamate]",IC50,"[2]; RT-112, 72 h",29 nM
same,IC50,"[3]; BT-474, 72 h",37 nM
same,IC50,HER2 [6],0.17 µM and 0.091 µM
same,IC50,"HER2 [6]; BT-474 cells, overnight",0.091 µM
same,% Remaining (1 h),[8]; [9],82.0%
same,% Remaining (1 h),"[8]; mouse plasma, 37° C., 10 μM",82.0%
same,IC50,"[4]; SW780, 72 h",> 10000 nM
same,Plasma Conc.,"after SDC-TRAP-0178, 1 h",217000 nM
same,Tumor Conc.,"after SDC-TRAP-0178, 1 h",12.8 nmol/g of tissue
same,Tumor/Plasma Ratio,"after SDC-TRAP-0178, 1 h",0.0589
same,Plasma Conc.,"after SDC-TRAP-0178, 6 h",4510 nM
same,Tumor Conc.,"after SDC-TRAP-0178, 6 h",7.17 nmol/g of tissue
same,Tumor/Plasma Ratio,"after SDC-TRAP-0178, 6 h",1.59
same,Plasma Conc.,"after SDC-TRAP-0178, 24 h",28 nM
same,Tumor Conc.,"after SDC-TRAP-0178, 24 h",2.81 nmol/g of tissue
same,Tumor/Plasma Ratio,"after SDC-TRAP-0178, 24 h",100
same,Plasma Conc.,"after SDC-TRAP-0178, 48 h",241 nM
same,Tumor Conc.,"after SDC-TRAP-0178, 48 h",1.01 nmol/g of tissue
same,Tumor/Plasma Ratio,"after SDC-TRAP-0178, […]",0.0179
"CCNC(=O)c1nnc(-c2cc(C(C)C)c(O)cc2O)n1-c1ccc2c(c1)CN(Cc1cc(OC)c(OC(=O)Nc3cccc4c3CN(C3CCC(=O)NC3=O)C4=O)c(OC)c1)C2 (stereo not drawn) [SDC-TRAP-0196, 4-((5-(3-(2,4-dihydroxy-5-isopropylphenyl)-5-(ethylcarbamoyl)-4H-1,2,4-triazol-4-yl)isoindolin-2-yl)methyl)-2,6-dimethoxyphenyl (2-(2,6-dioxopiperidin-3-yl)-1-oxoisoindolin-4-yl)carbamate]",IC50,"[2]; RT-112, 72 h",31 nM
same,IC50,"[3]; BT-474, 72 h",17 nM
same,IC50,HER2 [6],0.089 µM
same,% Remaining (1 h),[8]; [9],66.2%
same,IC50,"[4]; SW780, 72 h",> 10000 nM
same,Mass Retention,[5],22.3%
"CCc1c2c(nc3ccc(OC(=O)N4CCN(C(=O)Cn5ccc6cc(-n7c(O)nnc7-c7cc(C(C)C)c(O)cc7O)ccc65)CC4C)cc13)-c1cc3c(c(=O)n1C2)COC(=O)C3(O)CC (stereo not drawn) [SDC-TRAP-0201, 4,11-Diethyl-4-hydroxy-3,14-dioxo-3,4,12,14-tetrahydro-1H-pyrano[3′,4′:6,7]indolizino[1,2-b]quinolin-9-yl 4-(2-(5-(3-(2,4-dihydroxy-5-isopropylphenyl)-5-hydroxy-4H-1,2,4-triazol-4-yl)-1H-indol-1-yl)acetyl)-2-methylpiperazine-1-carboxylate]",IC50,"[2]; RT-112, 72 h",72 nM
same,IC50,"[3]; BT-474, 72 h",1410 nM
same,IC50,HER2 [6],4.67 µM
same,IC50,"[4]; SW780, 72 h",1100 nM
"CCc1c2c(nc3ccc(OC(=O)N4CCC[C@H]4C(=O)N4CCN(c5ccc(-n6c(O)nnc6-c6cc(C(C)C)c(O)cc6O)cc5)CC4)cc13)-c1cc3c(c(=O)n1C2)COC(=O)[C@]3(O)CC [SDC-TRAP-0204, (S)—(S)-4,11-diethyl-4-hydroxy-3,14-dioxo-3,4,12,14-tetrahydro-1H-pyrano[3′,4′:6,7]indolizino[1,2-b]quinolin-9-yl 2-(4-(4-(3-(2,4-dihydroxy-5-isopropylphenyl)-5-hydroxy-4H-1,2,4-triazol-4-yl)phenyl)piperazine-1-carbonyl)pyrrolidine-1-carboxylate]",IC50,"[2]; RT-112, 72 h",1310 nM
same,IC50,"[3]; BT-474, 72 h",8060 nM
same,IC50,HER2 [6],> 10 µM
same,IC50,"[4]; SW780, 72 h",> 10000 nM
"CC(C)c1cc(C(=O)N2Cc3ccc(NC(=O)CCCc4nc5cc(N(CCCl)CCCl)ccc5n4C)cc3C2)c(O)cc1O [SDC-TRAP-0211, 4-(5-(bis(2-chloroethyl)amino)-1-methyl-1H-benzo[d]imidazol-2-yl)-N-(2-(2,4-dihydroxy-5-isopropylbenzoyl)isoindolin-5-yl)butanamide]",IC50,"[2]; RT-112, 72 h",110 nM
same,IC50,"[3]; BT-474, 72 h",249 nM
same,IC50,"HER2 [6]; BT-474 cells, overnight",0.289 µM
same,IC50,"[4]; SW780, 72 h",2340 nM
